Laboratory results from patent publication US20100227828A1, “NEW SYNERGISTIC PHYTOCHEMICAL COMPOSITION FOR THE TREATMENT OF OBESITY” (LAILA NUTRACEUTICALS, priority 2007, published 2010).

What was measured:
[1] = system: 5-lipoxygenase; assay: 5-Lipoxygenase inhibitory activity, colorimetric method; format: biochemical
Procedure: The new dietary/pharmaceutical supplement compositions are screened for their 5-lipoxygenase inhibitory potential using colorimetric method. The assay mixture contained 50 mM phosphate buffer (pH 6.3), 5-lipoxygenase, various concentrations of test composition (5 μg, 10 μg, 20 μg) in dimethylsulphoxide and linolenic acid in a total volume of 0.5 mL, after 5 min incubation of above reaction mixture 0.5 mL ferric xylenol orange reagent is added and OD is measured after two minutes at 585 nm using spectrophotometer. Controls are run along with test in a similar manner except using vehicle instead of test substance solution. Percent inhibition is calculated by comparing absorbance of the test solution with that of control.

[2] = Protective effect against diet induced obesity in rats; format: in vivo, Sprague-Dawley rats; settings: 7 mg/kg oral per day, 8 weeks with high fat diet
Procedure: Selected healthy Sprague-Dawley rats were randomly assigned to control or various treatment groups (n=6). All the animals allocated for protective phase of the study were on dietary intervention by feeding high fat diet ad libitum and the animals allocated to treatment groups were simultaneously given oral administration of 250 mg/kg of composition-1 or 7 mg/kg sibutramine per day in […] of 0.5% CMC, using gastric tube for the entire 8 week study duration. The test animals of the control group were simultaneously given 10 ml/kg of 0.5% CMC. Food and water consumption were recorded daily, body weights were recorded weekly and fasting blood samples were collected before initiation, after 4th week and 8th week (termination) of the study.

Row | SMILES | % of inhibition (5-Lipoxygenase) ([1]; 5 μg) [%] | % of inhibition (5-Lipoxygenase) ([1]; 10 μg) [%] | reduction in weight gain [2] [%]
1 | C[C@H](Cc1ccc(O)c(O)c1)[C@@H](C)Cc1ccc(O)c(O)c1 [NDGA, Nordihydroguiaretic acid] | 50.2 | 77.35 | –
2 | CC(C)CC(N(C)C)C1(c2ccc(Cl)cc2)CCC1 (stereo not drawn) [sibutramine] | – | – | 28.2
